{"source": "paper PMC9120013", "about": "“Ribosome inhibition by C9ORF72-ALS/FTD-associated poly-PR and poly-GR proteins revealed by cryo-EM” (Nature Communications, 2022)", "type_in_all_cases": "biochemical", "key": {"nanoluciferase": {"test_system": "nanoluciferase", "experiment": "Control: nanoluciferase enzyme activity after translation stopped by cycloheximide", "conditions": "1 µM added after translation stopped by CHX; n=8", "description": "(§1) The following additional controls indicate that DPR-induced changes in fluorescence were caused by translation inhibition.\n(§2) Supplementary Fig. 1. […]\n(e) Nanoluciferase mRNA was translated in\nthe absence of DPRs, translation was stopped by cycloheximide (CHX), then 1 µM PR20\nor GR20 were added and luminescence was monitored. n=8 independent experiments;\nmean of normalized RLU ± SD. […]"}, "[1]": {"test_system": "firefly luciferase enzyme", "experiment": "Control: firefly luciferase enzyme activity in RRL without mRNA", "conditions": "1 µM added after 120 s to 40 nM enzyme in RRL; n=6", "text": "as §1, §2"}, "E. coli 70S ribosomes": {"test_system": "E. coli 70S ribosomes", "experiment": "Erythromycin competition in the puromycin assay on 70S ribosomes", "conditions": "20 μM erythromycin and/or 2 μM PR20, 30 nM 70S, quenched at 300 s", "description": "The assay was performed as described above for the puromycin kinetics, except that the 70S ribosomes were pre-incubated with 22 μM erythromycin for 5 min prior to adding PR20. The stock solution of erythromycin contained 2 mM erythromycin in ethanol, so the control reaction (70S with no erythromycin) and the reactions with erythromycin were prepared to contain the same amount of ethanol (1%). The final concentrations after addition of puromycin were: 30 nM 70S, 66 nM [^35S]-fMet-tRNA^fMet, 1 μM mRNA, 2 μM PR20 (no PR20 in the control reaction), 20 μM erythromycin (or no erythromycin in a control reaction), 50 µM puromycin (in 20 mM Tris-acetate (pH 7.0), 100 mM NH4OAc, 12 mM Mg(OAc)2 and 1% ethanol). Samples were quenched at 300 s when the uninhibited reaction had reached a plateau."}}, "note": "Ends that are not written are not given here.", "data": [{"compound": "PRPRPRPRPRPRPRPRPRPRPRPRPRPRPRPRPRPRPRPR [PR20]", "values": [{"measurement": "effect on nanoluciferase enzyme activity", "setting": "nanoluciferase", "value": "do not affect enzyme activity"}, {"measurement": "effect on firefly luciferase enzyme activity", "setting": "[1]", "value": "do not affect enzyme activity"}, {"measurement": "fMet-puromycin formed", "setting": "E. coli 70S ribosomes; first column (replicate 1)", "value": 254}, {"measurement": "fMet-puromycin formed", "setting": "E. coli 70S ribosomes; second column (replicate 2)", "value": 277}]}, {"compound": "N=C(N)NCCC[C@H](NC(=O)CNC(=O)[C@H](CCCNC(=N)N)NC(=O)CNC(=O)[C@H](CCCNC(=N)N)NC(=O)CNC(=O)[C@H](CCCNC(=N)N)NC(=O)CNC(=O)[C@H](CCCNC(=N)N)NC(=O)CNC(=O)[C@H](CCCNC(=N)N)NC(=O)CNC(=O)[C@H](CCCNC(=N)N)NC(=O)CNC(=O)[C@H](CCCNC(=N)N)NC(=O)CNC(=O)[C@H](CCCNC(=N)N)NC(=O)CNC(=O)[C@H](CCCNC(=N)N)NC(=O)CNC(=O)[C@H](CCCNC(=N)N)NC(=O)CNC(=O)[C@H](CCCNC(=N)N)NC(=O)CNC(=O)[C@H](CCCNC(=N)N)NC(=O)CNC(=O)[C@H](CCCNC(=N)N)NC(=O)CNC(=O)[C@H](CCCNC(=N)N)NC(=O)CNC(=O)[C@H](CCCNC(=N)N)NC(=O)CNC(=O)[C@H](CCCNC(=N)N)NC(=O)CNC(=O)[C@H](CCCNC(=N)N)NC(=O)CNC(=O)[C@H](CCCNC(=N)N)NC(=O)CNC(=O)[C@H](CCCNC(=N)N)NC(=O)CN)C(=O)O", "note": "[GR20]", "values": [{"measurement": "effect on nanoluciferase enzyme activity", "setting": "nanoluciferase", "value": "do not affect enzyme activity"}, {"measurement": "effect on firefly luciferase enzyme activity", "setting": "[1]", "value": "do not affect enzyme activity"}]}]}
